Data reported in patent publication US12679836B2, “4H-pyrrolo[3,2-c]pyridin-4-one compounds” (Bayer Aktiengesellschaft, priority 2019, dated 2026).
“And” between values parts separate entries of the source, which are not always exact repeats. Identical values can stand only once.

Tests used:
Assay type in all cases: cell-based
[1] = biological target: Ba/F3-EGFR-E746_A750del C797S cells (Homo sapiens, UniProt P00533, DEL746-750/C797S, cells depend on it); assay: Ba/F3 cell survival assay, EGFR E746_A750del C797S; conditions: without IL-3, without EGF, 48 h; read-out: BA/F3 (EGFR E746_A750del C797S) IC50
Sequence of Ba/F3-EGFR-E746_A750del C797S cells (P00533 with tags, fused parts or gaps DEL746-750/C797S): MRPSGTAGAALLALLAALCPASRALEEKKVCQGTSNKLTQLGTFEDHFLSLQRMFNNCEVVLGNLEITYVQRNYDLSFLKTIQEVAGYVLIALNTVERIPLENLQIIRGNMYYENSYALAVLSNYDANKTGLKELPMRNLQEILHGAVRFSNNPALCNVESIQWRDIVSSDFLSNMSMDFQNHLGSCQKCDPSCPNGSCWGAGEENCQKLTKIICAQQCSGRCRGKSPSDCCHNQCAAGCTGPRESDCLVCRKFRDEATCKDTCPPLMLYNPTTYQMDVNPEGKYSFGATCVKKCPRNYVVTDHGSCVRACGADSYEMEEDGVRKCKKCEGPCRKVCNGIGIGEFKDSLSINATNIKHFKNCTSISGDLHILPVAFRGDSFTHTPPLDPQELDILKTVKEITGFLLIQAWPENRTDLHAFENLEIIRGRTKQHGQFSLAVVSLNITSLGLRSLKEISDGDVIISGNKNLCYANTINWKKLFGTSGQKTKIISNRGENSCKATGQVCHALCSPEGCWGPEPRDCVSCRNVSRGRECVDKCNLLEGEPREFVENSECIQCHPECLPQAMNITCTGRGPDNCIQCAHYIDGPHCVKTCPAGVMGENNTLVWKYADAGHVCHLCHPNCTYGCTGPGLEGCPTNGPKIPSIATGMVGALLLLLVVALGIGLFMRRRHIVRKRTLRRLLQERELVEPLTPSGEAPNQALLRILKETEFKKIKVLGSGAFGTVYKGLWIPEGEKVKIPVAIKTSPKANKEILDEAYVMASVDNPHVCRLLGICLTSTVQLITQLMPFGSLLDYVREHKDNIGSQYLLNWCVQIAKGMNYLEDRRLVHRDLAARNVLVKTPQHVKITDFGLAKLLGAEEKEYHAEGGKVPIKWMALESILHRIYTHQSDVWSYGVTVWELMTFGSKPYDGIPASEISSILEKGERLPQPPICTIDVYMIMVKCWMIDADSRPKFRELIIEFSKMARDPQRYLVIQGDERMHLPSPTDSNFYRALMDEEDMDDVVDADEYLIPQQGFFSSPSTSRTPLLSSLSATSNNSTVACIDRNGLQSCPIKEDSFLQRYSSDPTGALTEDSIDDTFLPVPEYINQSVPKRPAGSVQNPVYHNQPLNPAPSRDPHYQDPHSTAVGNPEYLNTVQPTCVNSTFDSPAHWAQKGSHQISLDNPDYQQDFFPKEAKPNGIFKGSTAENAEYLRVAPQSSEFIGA
Method: 293T cells from ATCC were transfected with pBABEpuro expression constructs for mutant EGFR (V769_D770insASV, D770_N771insNPG, N771_P772insH, H773_V774insNPH, E746_A750del, L858R, D770_N771insSVD C797S, E746_A750del C797S, L858R C797S, L861Q) or mutant ERBB2 (A775_G776insYVMA) and pCL-Eco packaging vector using Fugene-6 transfection reagent from Promega. Plates were incubated at 37° C. for 48 h. Retrovirus was harvested by filtering the media supernatant through a 0.45 μm filter.
Ba/F3 cells purchased from DSMZ were grown in RPMI+10% FBS+10 ng/mL IL-3 and infected with filtered retroviral supernatant at a 1:2 dilution. Polybrene was added to a concentration of 8 μg/mL, plates were spun for 90 min, and incubated overnight at 37° C. 2 μg/mL puromycin was added to the infected cells 24 h after infection and cells were continually grown in the presence of puromycin and 10 ng/mL IL-3. Following stably expressing Ba/F3 cell lines were generated: Ba/F3-EGFR-V769_D770insASV, Ba/F3-EGFR-D770_N771insNPG, Ba/F3-EGFR-N771_P772insH, Ba/F3-EGFR-H773_V774insNPH, Ba/F3-EGFR-E746_A750del, Ba/F3-EGFR-L858R, Ba/F3-EGFR-D770_N771 insSVD C797S, Ba/F3-EGFR-E746_A750del C797S, Ba/F3-EGFR-L858R C797S, Ba/F3-EGFR L861Q and Ba/F3-ERBB2-A775_G776insYVMA (Ba/F3-vector-control).
For cell survival assays, Ba/F3 cells were grown to a density of 1-2 million cells per mL, spun down and resuspended in media without IL-3, and replated at a concentration 200,000-500,000 cells per mL. The cells ectopically expressing WT EGFR plated with 10 ng/mL Millipore Culture grade EGF and Ba/F3 cells containing mutant EGFR or Mutant ERBB2 were cultivated without EGF. The cells ectopically expressing pBABEpuro empty vector were plated with 10 ng/mL IL-3.
2 days later, cells were plated in 50 μL in a 384 well plate at a concentration of 4000 cells per well for cells assayed in the absence of IL-3 and 2000 cells per well for cells assayed in the presence of IL-3. 100 nL of compound was added to each well using a 100 nL pin head, and plates were incubated at 37° C. for 48 h.
Cell viability was measured by adding 20 μL of Cell Titer-Glo Luminescent Cell Viability Reagent diluted 1:3 in PBS. Plates were sealed with Perkin Elmer Top-Seal, inverted several times to mix, and immediately centrifuged at 1000 rpm for 2 min. Plates were incubated in low light conditions for 8-10 min and luminescence was measured.

Ba/F3-EGFR-WT cells = Ba/F3-EGFR-WT cells (Homo sapiens, UniProt P00533); assay: Ba/F3 cell survival assay (Cell Titer-Glo), WT EGFR; conditions: without IL-3, with 10 ng/mL EGF, 48 h; read-out: BA/F3 (wild type) IC50
Sequence of Ba/F3-EGFR-WT cells (P00533 whole entry, stated change not applied): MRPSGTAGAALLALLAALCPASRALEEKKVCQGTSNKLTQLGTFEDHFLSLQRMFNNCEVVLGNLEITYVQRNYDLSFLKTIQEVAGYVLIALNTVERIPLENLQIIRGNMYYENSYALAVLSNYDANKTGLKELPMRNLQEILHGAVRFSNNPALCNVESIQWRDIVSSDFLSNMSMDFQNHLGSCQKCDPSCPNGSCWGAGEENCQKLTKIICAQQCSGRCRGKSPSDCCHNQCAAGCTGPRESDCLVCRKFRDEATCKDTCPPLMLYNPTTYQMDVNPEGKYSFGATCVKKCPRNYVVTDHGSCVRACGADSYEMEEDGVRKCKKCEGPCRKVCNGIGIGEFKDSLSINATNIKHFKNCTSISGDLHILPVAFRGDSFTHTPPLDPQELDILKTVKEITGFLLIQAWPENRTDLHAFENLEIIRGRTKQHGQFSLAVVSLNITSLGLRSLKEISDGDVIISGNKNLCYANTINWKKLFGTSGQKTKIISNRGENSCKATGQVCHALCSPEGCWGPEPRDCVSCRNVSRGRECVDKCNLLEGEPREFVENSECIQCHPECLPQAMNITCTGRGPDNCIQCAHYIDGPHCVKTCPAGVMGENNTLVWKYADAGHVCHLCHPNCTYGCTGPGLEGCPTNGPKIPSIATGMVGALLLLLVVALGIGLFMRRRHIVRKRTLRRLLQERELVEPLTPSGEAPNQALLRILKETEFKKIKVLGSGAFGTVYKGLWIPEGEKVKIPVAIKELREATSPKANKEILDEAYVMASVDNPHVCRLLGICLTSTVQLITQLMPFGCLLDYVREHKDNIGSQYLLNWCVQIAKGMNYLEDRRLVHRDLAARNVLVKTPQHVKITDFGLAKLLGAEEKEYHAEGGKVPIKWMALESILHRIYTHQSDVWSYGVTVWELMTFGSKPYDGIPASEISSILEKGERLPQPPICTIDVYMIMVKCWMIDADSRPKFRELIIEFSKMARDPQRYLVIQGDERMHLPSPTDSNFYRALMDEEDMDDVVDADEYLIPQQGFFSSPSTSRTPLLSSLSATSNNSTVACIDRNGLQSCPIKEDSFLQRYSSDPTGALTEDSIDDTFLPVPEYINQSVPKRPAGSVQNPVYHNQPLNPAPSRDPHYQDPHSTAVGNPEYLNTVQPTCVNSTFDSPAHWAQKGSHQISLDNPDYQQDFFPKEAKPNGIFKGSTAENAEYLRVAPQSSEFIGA
In short: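 Ba/F3 cells stably expressing WT EGFR or EGFR-insSVD from retroviral transduction were grown without IL-3 on 10 ng/mL EGF. Cells were plated at 4000 cells/well, treated with compound for 48 h at 37° C, and viability was read by CellTiter-Glo luminescence.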

[2] = tested on: HCC-827 cells (EGFRex19del); assay: HCC-827 proliferation assay (Cell Titer Glo); conditions: Homo sapiens, HCC827, 72 h
Method: Cellular Data Description (HCC-827 Cells, EGFRex19del)
HCC-827 cells were purchased from ATCC. […] cells per well were seeded in growth medium (RPM11640, 10% FCS) in a 384-well plate (CORNING #3571). Seed reference plate for time zero determination on the same day. All plates were incubated overnight at 37° C. After 24 hours, test compound were added in 7-step dilution using HP Compound printer and incubated at 37° C. for 72 h. After 3 days, 30 μL/well CTG solution (Promega Cell Titer Glo solution; catalog # G755B and G756B) were added to each well, incubated for 30 minutes and the plate were read on PheraStar. Proliferation is calculated after subtracting time zero luminescence values from day 4 values and comparing to untreated wells.
The IC50 values were determined using the four parameter fit.

IC50 [2] | SMILES | GI50 [1] | GI50 (Ba/F3-EGFR-WT cells)
< 3 nM | O=C1NCCc2[nH]c(-c3ccncc3OCC3COCCO3)c(Nc3cccc(Cl)c3Cl)c21 (single isomer, unassigned) [Example 8, 3-(2,3-dichloroanilino)-2-{3-[(1,4-dioxan-2-yl)methoxy]pyridin-4-yl}-1,5,6,7-tetrahydro-4H-pyrrolo[3,2-c]pyridin-4-one] | 0.247 nM | 121 nM
< 3 nM | COc1c(F)cccc1Nc1c(-c2ccncc2OC[C@@H]2COCCN2C)[nH]c2c1C(=O)NCC2 [Example 20, 3-(3-fluoro-2-methoxyanilino)-2-(3-{[(3S)-4-methylmorpholin-3-yl]methoxy}pyridin-4-yl)-1,5,6,7-tetrahydro-4H-pyrrolo[3,2-c]pyridin-4-one] | 0.349 nM | 313 nM
< 3 nM | Cc1c(Cl)cccc1Nc1c(-c2ccncc2OC[C@@H]2CN(C)CCO2)[nH]c2c1C(=O)NCC2 [Example 42, 3-(3-chloro-2-methylanilino)-2-(3-{[(2S)-4-methylmorpholin-2-yl]methoxy}pyridin-4-yl)-1,5,6,7-tetrahydro-4H-pyrrolo[3,2-c]pyridin-4-one] | 0.494 nM | 596 nM
< 3 nM | COc1c(Cl)cccc1Nc1c(-c2ccncc2OCC2COC(C)(C)CO2)[nH]c2c1C(=O)NCC2 (single isomer, unassigned) [Example 32, 3-(3-chloro-2-methoxyanilino)-2-{3-[(5,5-dimethyl-1,4-dioxan-2-yl)methoxy]pyridin-4-yl}-1,5,6,7-tetrahydro-4H-pyrrolo[3,2-c]pyridin-4-one] | 0.511 nM | –
< 3 nM | COc1c(F)cccc1Nc1c(-c2ccncc2OCC2CN(C)CCO2)[nH]c2c1C(=O)NCC2 (single isomer, unassigned) [Example 14, 3-(3-fluoro-2-methoxyanilino)-2-{3-[(4-methylmorpholin-2-yl)methoxy]pyridin-4-yl}-1,5,6,7-tetrahydro-4H-pyrrolo[3,2-c]pyridin-4-one] | 0.379 nM | 387 nM
< 3 nM | Cc1c(F)cccc1Nc1c(-c2ccncc2OCC2COCCO2)[nH]c2c1C(=O)NCC2 (single isomer, unassigned) [Example 48, 2-[3-(1,4-dioxan-2-ylmethoxy)-4-pyridyl]-3-(3-fluoro-2-methyl-anilino)-1,5,6,7-tetrahydropyrrolo[3,2-c]pyridin-4-one] | 0.4 nM and 0.776 nM | 379 nM
< 3 nM | COc1c(Cl)cccc1Nc1c(-c2ccncc2OC[C@@H]2COCCO2)[nH]c2c1C(=O)NCC2 (single isomer, unassigned) [Example 2] | 0.22 nM | 292 nM
< 3 nM | Cc1c(Cl)cccc1Nc1c(-c2ccncc2OC[C@H]2COCCO2)[nH]c2c1C(=O)NCC2 (single isomer, unassigned) [Example 50] | 0.348 nM | 361 nM
< 3 nM | COc1c(Cl)cccc1Nc1c(-c2ccncc2OC[C@@H]2COCCN2C)[nH]c2c1C(=O)NCC2 [Example 21, 3-(3-chloro-2-methoxyanilino)-2-(3-{[(3S)-4-methylmorpholin-3-yl]methoxy}pyridin-4-yl)-1,5,6,7-tetrahydro-4H-pyrrolo[3,2-c]pyridin-4-one] | 0.259 nM | 341 nM
< 3 nM | Cc1c(Cl)cccc1Nc1c(-c2ccncc2OCC2COC(C)(C)CO2)[nH]c2c1C(=O)NCC2 (single isomer, unassigned) [Example 46, 3-(3-chloro-2-methyl-anilino)-2-[3-[(5,5-dimethyl-1,4-dioxan-2-yl)methoxy]-4-pyridyl]-1,5,6,7-tetrahydropyrrolo[3,2-c]pyridin-4-one] | – | 376 nM
< 3 nM | CCc1c(Cl)cccc1Nc1c(-c2ccncc2OC[C@@H]2CN(C)CCO2)[nH]c2c1C(=O)NCC2 [Example 56, 3-(3-chloro-2-ethylanilino)-2-(3-{[(2S)-4-methylmorpholin-2-yl]methoxy}pyridin-4-yl)-1,5,6,7-tetrahydro-4H-pyrrolo[3,2-c]pyridin-4-one] | 0.423 nM | 435 nM
– | COc1c(F)cccc1Nc1c(-c2ccncc2OCC2COCCO2)[nH]c2c1C(=O)NCC2 (single isomer, unassigned) [Example 5, 2-{3-[(1,4-dioxan-2-yl)methoxy]pyridin-4-yl}-3-(3-fluoro-2-methoxyanilino)-1,5,6,7-tetrahydro-4H-pyrrolo[3,2-c]pyridin-4-one] | 0.668 nM | 262 nM
